Assay results reported in patent US11058115B2, “Heterocycle derivatives as pesticides” (Bayer Aktiengesellschaft, priority 2017, dated 2021).

Tests used:
Format in all cases: in vivo
Ctenocephalides felis [1] = test: Ctenocephalides felis oral test; details: application rate 100 ppm in citrated cattle blood, adult cat fleas, after 2 days
Method: Ctenocephalides felis—Oral Test Solvent: dimethyl sulfoxide To produce a suitable active ingredient formulation, 10 mg of active ingredient are mixed with 0.5 ml of dimethyl sulfoxide. Dilution with citrated cattle blood gives the desired concentration. About 20 unfed adult cat fleas (Ctenocephalides felis) are placed into a chamber which is closed at the top and bottom with gauze. A metal cylinder whose bottom end is closed with parafilm is placed onto the chamber. The cylinder contains the blood/active ingredient formulation, which can be imbibed by the fleas through the parafilm membrane. After 2 days, the kill in % is determined. 100% means that all of the fleas have been killed; 0% means that none of the fleas have been killed.

Musca domestica = Musca domestica test; details: adult houseflies, after 2 days
Method: Musca domestica Test Solvent: dimethyl sulfoxide To produce a suitable active ingredient formulation, 10 mg of active ingredient are mixed with 0.5 ml of dimethyl sulfoxide, and the concentrate is diluted with water to the desired concentration. Vessels containing a sponge treated with sugar solution and the active ingredient formulation of the desired concentration are populated with 10 adult houseflies (Musca domestica). After 2 days, the kill in % is determined. 100% means that all of the flies have been killed; 0% means that none of the flies have been killed.

Myzus persicae [2] = test: Myzus persicae oral test; details: 120 h, after 5 days, read-out: efficacy in %; for pest or weed control at 0.8 ppm: application rate 0.8 ppm; for pest or weed control at 4 ppm: application rate 4 ppm; for pest or weed control at 20 ppm: application rate 20 ppm
Method: Myzus persicae—Oral Test [table] To produce a suitable active ingredient formulation, 1 part by weight of active ingredient is dissolved with the stated parts by weight of solvent and made up to the desired concentration with water. 50 μl of the active ingredient formulationare transferred into microtitre plates and made up to a final volume of 200 μl with 150 μl of IPL41 insect medium (33% +15% sugar). Subsequently, the plates are sealed with parafilm, which a mixed population of green peach aphids (Myzus persicae) within a second microtitre plate is able to puncture and imbibe the solution. After 5 days, the efficacy in % is determined. 100% means that all the aphids have been killed; 0% means that no aphids have been killed.

Phaedon cochleariae = Phaedon cochleariae spray test; details: foliar, 168 h, application rate 100 g/ha, spray on Chinese cabbage leaf discs, larvae, after 7 days, read-out: efficacy in %
Method: Phaedon cochleariae—Spray Test
(§1) To produce a suitable active ingredient formulation, 1 part by weight of active ingredient is dissolved with the specified parts by weight of solvent and made up to the desired concentration with water containing an emulsifier concentration of 1000 ppm. To produce further test concentrations, the formulation is diluted with emulsifier-containing water.
Discs of Chinese cabbage leaves (Brassica pekinensis) are sprayed with an active ingredient formulation of the desired concentration and, after drying, populated with larvae of the mustard beetle (Phaedon cochleariae).
After 7 days, the efficacy in % is determined. 100% means that all the beetle larvae have been killed; 0% means that no beetle larvae have been killed.

Spodoptera frugiperda = Spodoptera frugiperda spray test; details: application rate 100 g/ha, spray on maize leaf discs, caterpillars, after 7 days
Method: Spodoptera frugiperda—Spray Test [table] To produce a suitable active ingredient formulation, 1 part by weight of active ingredient is dissolved with the specified parts by weight of solvent and made up to the desired concentration with water containing an emulsifier concentration of 1000 ppm. To produce further test concentrations, the formulation is diluted with emulsifier-containing water. Leaf discs of maize (Zea mays) are sprayed with an active ingredient formulation of the desired concentration and, after drying, populated with caterpillars of the armyworm (Spodoptera frugiperda). After 7 days, the efficacy in % is determined. 100% means that all the caterpillars have been killed; 0% means that no caterpillar has been killed.

Lucilia cuprina = Lucilia cuprina test; details: application rate 100 ppm, L1 larvae, after 2 days
Method: Lucilia cuprina Test Solvent: dimethyl sulfoxide To produce a suitable active ingredient formulation, 10 mg of active ingredient are mixed with 0.5 ml of dimethyl sulfoxide, and the concentrate is diluted with water to the desired concentration. About 20 L1 larvae of the Australian sheep blowfly (Lucilia cuprina) are transferred into a test vessel containing minced horsemeat and the active ingredient formulation of the desired concentration. After 2 days, the kill in % is determined. 100% means that all the larvae have been killed; 0% means that no larvae have been killed.

Myzus persicae [3] = test: Myzus persicae spray test; details: foliar, 120 h, application rate 100 g/ha, spray on Chinese cabbage leaf discs, after 5 days, read-out: efficacy in %
Method: Myzus persicae—Spray Test [table] To produce a suitable active ingredient formulation, 1 part by weight of active ingredient is dissolved with the specified parts by weight of solvent and made up to the desired concentration with water containing an emulsifier concentration of 1000 ppm. To produce further test concentrations, the formulation is diluted with emulsifier-containing water. Discs of Chinese cabbage leaves (Brassica pekinensis) infested by all stages of the green peach aphid (Myzus persicae) are sprayed with an active ingredient formulation of the desired concentration. After 5 days, the efficacy in % is determined. 100% means that all the aphids have been killed; 0% means that no aphids have been killed.

Tetranychus urticae = Tetranychus urticae spray test, OP-resistant; details: spray on bean leaf discs, all stages, after 6 days
Method: Tetranychus urticae—Spray Test, OP-Resistant
as §1
Discs of bean leaves (Phaseolus vulgaris) infested with all stages of the greenhouse red spider mite (Tetranychus urticae) are sprayed with an active ingredient formulation of the desired concentration.
After 6 days, the efficacy in % is determined. 100% means that all the spider mites have been killed; 0% means that no spider mites have been killed.

Rhipicephalus sanguineus = Rhipicephalus sanguineus in vitro contact test with adult brown dog ticks; details: application rate 5 μg/cm^2 (=500 g/ha), after 48 h
Method: Rhipicephalus sanguineus—In Vitro Contact Test with Adult Brown Dog Ticks For the coating of the test tubes, 9 mg of active ingredient are first dissolved in 1 ml of acetone p.a. and then diluted to the desired concentration with acetone p.a. 250 µl of the solution are distributed homogeneously on the inner walls and the base of a 25 ml glass tube by turning and rocking on an orbital shaker (rocking rotation at 30 rpm for 2 h). With 900 ppm of active ingredient solution and internal surface area 44.7 cm^2, given homogeneous distribution, an area-based dose of 5 μg/cm^2 is achieved. After the solvent has evaporated off, the tubes are populated with 5-10 adult dog ticks (Rhipicephalus sanguineus), sealed with a perforated plastic lid and incubated in a horizontal position in darkness at room temperature and ambient humidity. After 48 h, efficacy is determined. To this end, the ticks are knocked to the base of the tube and incubated on a hotplate at 45-50° C. for a maximum 5 min. Ticks which remain motionless at the base or move in such an uncoordinated manner that they cannot attempt to escape from the heat by climbing upward are considered to be dead or moribund. […] 100% efficacy means that all the ticks were dead or moribund. 0% efficacy means that no ticks were harmed.

Ctenocephalides felis [4] = test: Ctenocephalides felis in vitro contact test with adult cat fleas; details: application rate 5 μg/cm^2 (=500 g/ha), after 48 h
Method: Ctenocephalides felis—In Vitro Contact Tests with Adult Cat Fleas For the coating of the test tubes, 9 mg of active ingredient are first dissolved in 1 ml of acetone p.a. and then diluted to the desired concentration with acetone p.a. 250 μl of the solution are distributed homogeneously on the inner walls and the base of a 25 ml glass tube by turning and rocking on an orbital shaker (rocking rotation at 30 rpm for 2 h). With 900 ppm of active ingredient solution and internal surface area 44.7 cm^2, given homogeneous distribution, an area-based dose of 5 μg/cm^2 is achieved. After the solvent has evaporated off, the tubes are populated with 5-10 adult cat fleas (Ctenocephalides felis), sealed with a perforated plastic lid and incubated in a horizontal position at room temperature and ambient humidity. After 48 h, efficacy is determined. To this end, the tubes are stood upright and the fleas are knocked to the base of the tube. Fleas which remain motionless at the base or move in an uncoordinated manner are considered to be dead or moribund. […] 100% efficacy means that all the fleas were dead or moribund. 0% efficacy means that no fleas were harmed.

SMILES | efficacy (kill in %) (Ctenocephalides felis [1]) [%] | efficacy (kill in %) (Musca domestica; application rate 20 ppm) [%] | pest or weed control at 0.8 ppm (Myzus persicae [2]) [%] | pest or weed control at 4 ppm (Myzus persicae [2]) [%] | pest or weed control at 100 g/ha (Phaedon cochleariae) [%] | efficacy in % (Spodoptera frugiperda) [%] | efficacy (kill in %) (Lucilia cuprina) [%] | pest or weed control at 100 g/ha (Myzus persicae [3]) [%] | efficacy in % (Tetranychus urticae; application rate 100 g/ha) [%] | efficacy in % (Tetranychus urticae; application rate 20 g/ha) [%] | efficacy (ticks dead or moribund) (Rhipicephalus sanguineus) [%] | efficacy (kill in %) (Musca domestica; application rate 100 ppm) [%] | pest or weed control at 20 ppm (Myzus persicae [2]) [%] | efficacy (fleas dead or moribund) (Ctenocephalides felis [4]) [%]
CCS(=O)(=O)c1c(-c2nc3cc(S(=O)(=O)C(F)(F)F)cnc3n2C)nc(C2CC2)n1C [Example I-8] | 100 | 80 | 100 | 100 | 100 | 100 | 100 |  |  |  |  |  |  | 
CCS(=O)(=O)c1c(-c2nc3cc(SC(F)(F)F)cnc3n2C)nc(C2CC2)n1C [Example I-12] |  |  | 100 | 100 | 100 | 83 |  | 100 |  |  |  |  |  | 
CCS(=O)(=O)c1c(-c2nc3cc(C(F)(F)F)ncc3n2C)nc([C@H]2CC[C@@H](C)CC2)n1C [Example I-16] |  |  | 90 | 90 |  |  |  | 90 | 90 |  |  |  |  | 
CCS(=O)(=O)c1c(-c2nc3cc(C(F)(F)F)ncc3n2C)nc([C@H]2CC[C@@H](C(F)(F)F)CC2)n1C [Example I-15] |  |  | 90 | 100 | 100 |  |  | 90 |  |  |  |  |  | 
CCS(=O)(=O)c1c(-c2nc3cc(C(F)(F)F)ncc3n2C)nc(C2CCCCC2)n1C [Example I-13, 2-[2-Cyclohexyl-5-(ethylsulfonyl)-1-methyl-1H-imidazol-4-yl]-3-methyl-6-(trifluoromethyl)-3H-imidazo[4,5-c]pyridine] |  |  |  | 100 |  |  |  |  |  |  |  |  |  | 
CCS(=O)(=O)c1c(-c2nc3cc([S+]([O-])C(F)(F)F)cnc3n2C)nc(C2CC2)n1C (stereo not shown) [Example I-7] | 100 | 80 | 100 |  | 100 | 100 | 100 | 90 |  |  |  |  |  | 
CCS(=O)(=O)c1c(-c2nc3cc(C(F)(F)F)cnc3n2C)nc(C2CC2)n1C [Example I-2, 2-[2-Cyclopropyl-5-(ethylsulfonyl)-1-methyl-1H-imidazol-4-yl]-3-methyl-6-(trifluoromethyl)-3H-imidazo[4,5-b]pyridine] | 100 | 90 | 100 | 100 | 100 | 100 | 100 | 90 |  | 90 | 100 | 80 | 100 | 100
CCS(=O)(=O)c1c(-c2nc3cc(C(F)(F)F)ncc3n2C)nc(C2CC2)n1C(C)C [Example I-11] | 90 |  | 100 | 100 | 100 |  | 100 | 90 |  |  |  |  |  | 
CCSc1c(-c2nc3cc(C(F)(F)F)cnc3n2C)nc(C2CC2)n1C [Example I-1, 2-[2-Cyclopropyl-5-(ethylsulfanyl)-1-methyl-1H-imidazol-4-yl]-3-methyl-6-(trifluoromethyl)-3H-imidazo[4,5-b]pyridine] | 90 | 100 |  | 100 | 100 |  | 100 |  | 100 |  |  | 100 | 100 | 100
CCS(=O)(=O)c1c(-c2nc3cc(C(F)(F)F)nnc3n2C)nc(C2CC2)n1C [Example I-17] |  |  | 100 | 100 | 100 |  |  | 90 |  |  |  |  |  | 
CCS(=O)(=O)c1c(-c2nc3cc(C(F)(F)F)ncc3n2C)nc(C2CC2)n1C [Example I-9] |  |  | 100 | 100 | 100 |  |  |  |  |  |  |  |  | 
CCn1c(C2CC2)nc(-c2nc3cc(C(F)(F)F)ncc3n2C)c1S(=O)(=O)CC [Example I-10] |  |  | 100 | 100 | 100 | 83 |  |  |  |  |  |  |  | 
CCS(=O)(=O)c1c(-c2nc3cc(OC(F)(F)F)cnc3n2C)nc(C2CC2)n1C [Example I-6] |  |  | 100 | 100 | 100 | 100 |  | 100 | 90 |  |  |  |  | 
